# According to paper PMC8747639, “Novel Angiotensin-Converting Enzyme Inhibitory Peptides Identified from Walnut Glutelin-1 Hydrolysates: Molecular Interaction, Stability, and Antihypertensive Effects” (Nutrients, 2021):
# No end group written: not given here.
# T1: angiotensin-converting enzyme (ACE) from rabbit lung (rabbit) (UniProt P12822)
# T1 sequence: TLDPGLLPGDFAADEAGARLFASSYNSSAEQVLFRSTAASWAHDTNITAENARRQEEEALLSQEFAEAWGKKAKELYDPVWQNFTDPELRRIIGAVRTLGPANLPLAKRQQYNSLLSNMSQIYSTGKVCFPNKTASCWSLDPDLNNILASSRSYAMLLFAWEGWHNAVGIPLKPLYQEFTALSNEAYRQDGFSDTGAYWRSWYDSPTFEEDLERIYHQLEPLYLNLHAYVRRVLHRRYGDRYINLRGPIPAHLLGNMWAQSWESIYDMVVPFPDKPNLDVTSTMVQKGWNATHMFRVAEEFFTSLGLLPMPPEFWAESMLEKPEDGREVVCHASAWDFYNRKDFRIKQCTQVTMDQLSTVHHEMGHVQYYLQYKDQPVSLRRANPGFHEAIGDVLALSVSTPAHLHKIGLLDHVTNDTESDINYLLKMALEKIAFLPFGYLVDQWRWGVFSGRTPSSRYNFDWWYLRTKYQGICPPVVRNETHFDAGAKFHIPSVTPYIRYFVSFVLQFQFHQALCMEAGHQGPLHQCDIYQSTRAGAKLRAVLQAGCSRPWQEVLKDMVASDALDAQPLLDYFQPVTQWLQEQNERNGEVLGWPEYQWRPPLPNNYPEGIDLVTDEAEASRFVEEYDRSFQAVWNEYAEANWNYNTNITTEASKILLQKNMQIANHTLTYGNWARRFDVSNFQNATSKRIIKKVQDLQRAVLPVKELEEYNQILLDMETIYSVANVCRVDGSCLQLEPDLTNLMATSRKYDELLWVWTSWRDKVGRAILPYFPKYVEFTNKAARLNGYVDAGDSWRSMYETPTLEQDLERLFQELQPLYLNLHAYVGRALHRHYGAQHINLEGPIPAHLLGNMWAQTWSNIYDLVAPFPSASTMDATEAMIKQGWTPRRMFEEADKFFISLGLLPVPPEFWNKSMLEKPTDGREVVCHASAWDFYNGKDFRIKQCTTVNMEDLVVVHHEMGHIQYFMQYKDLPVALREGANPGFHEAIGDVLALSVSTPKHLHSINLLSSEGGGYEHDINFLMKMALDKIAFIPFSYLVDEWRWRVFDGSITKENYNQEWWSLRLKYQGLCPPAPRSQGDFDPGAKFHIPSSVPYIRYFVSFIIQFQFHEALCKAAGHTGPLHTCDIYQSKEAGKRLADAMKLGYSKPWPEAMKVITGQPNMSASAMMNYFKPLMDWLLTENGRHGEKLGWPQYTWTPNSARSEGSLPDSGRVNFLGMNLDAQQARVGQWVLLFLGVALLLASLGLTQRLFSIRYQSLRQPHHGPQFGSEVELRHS
# T2: ACE (from rabbit lung) (Oryctolagus cuniculus, UniProt P12822)
# T2 construct: ACE (from rabbit lung) and hippuryl-histidyl-leucine (HHL) were purchased from Sigma Co; purchased Sigma Co., St. Louis, MO, USA; host or cells: rabbit lung (tissue-derived)
# T2 sequence (P12822 34-1310): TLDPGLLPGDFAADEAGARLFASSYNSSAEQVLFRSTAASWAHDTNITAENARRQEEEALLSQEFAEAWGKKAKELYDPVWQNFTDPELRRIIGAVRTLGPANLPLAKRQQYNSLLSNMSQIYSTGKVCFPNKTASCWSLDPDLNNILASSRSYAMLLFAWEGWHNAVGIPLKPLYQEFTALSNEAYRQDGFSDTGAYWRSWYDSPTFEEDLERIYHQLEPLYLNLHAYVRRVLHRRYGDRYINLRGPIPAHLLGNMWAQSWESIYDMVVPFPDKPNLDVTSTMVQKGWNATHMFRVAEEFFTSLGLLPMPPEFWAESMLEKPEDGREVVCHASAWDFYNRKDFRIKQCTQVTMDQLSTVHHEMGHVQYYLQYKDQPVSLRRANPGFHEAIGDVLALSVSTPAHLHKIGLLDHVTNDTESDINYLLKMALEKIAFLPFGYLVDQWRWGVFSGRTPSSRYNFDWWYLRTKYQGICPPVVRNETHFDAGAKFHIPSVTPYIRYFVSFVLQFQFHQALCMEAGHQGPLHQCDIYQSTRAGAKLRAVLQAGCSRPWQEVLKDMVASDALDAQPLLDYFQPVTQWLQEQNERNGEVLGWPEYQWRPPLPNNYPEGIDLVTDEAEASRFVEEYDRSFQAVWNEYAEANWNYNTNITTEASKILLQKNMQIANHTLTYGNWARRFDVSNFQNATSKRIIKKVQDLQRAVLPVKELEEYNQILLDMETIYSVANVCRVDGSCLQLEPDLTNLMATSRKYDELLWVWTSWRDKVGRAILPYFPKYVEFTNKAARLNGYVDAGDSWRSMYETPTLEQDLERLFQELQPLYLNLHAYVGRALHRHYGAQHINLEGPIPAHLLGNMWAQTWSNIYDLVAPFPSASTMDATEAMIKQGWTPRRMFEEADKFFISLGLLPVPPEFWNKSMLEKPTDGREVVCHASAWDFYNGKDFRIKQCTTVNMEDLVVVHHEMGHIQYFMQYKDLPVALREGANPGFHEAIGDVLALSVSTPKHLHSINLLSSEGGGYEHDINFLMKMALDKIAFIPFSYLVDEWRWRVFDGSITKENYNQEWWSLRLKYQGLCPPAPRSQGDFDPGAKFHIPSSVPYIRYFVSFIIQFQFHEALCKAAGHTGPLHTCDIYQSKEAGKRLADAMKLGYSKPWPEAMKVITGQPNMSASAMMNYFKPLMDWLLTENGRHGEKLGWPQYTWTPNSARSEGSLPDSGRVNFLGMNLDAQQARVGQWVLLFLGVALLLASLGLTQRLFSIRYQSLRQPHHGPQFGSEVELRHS
# Columns and labels:
# [1] = molecular target: T1, angiotensin-converting enzyme (ACE) from rabbit lung (rabbit)
# ACE (from rabbit lung) = molecular target: T2, ACE (from rabbit lung); test: ACE inhibitory activity (HHL substrate, absorbance); type: biochemical; details: calculated by linear regression of the curve; read-out: IC50 on angiotensin converting enzyme (ACE)
# From the text: The Grain, Oil and Protein Engineering Laboratory of Shaanxi Normal University (Xi’an, China) provided the defatted walnut meal. ACE (from rabbit lung) and hippuryl-histidyl-leucine (HHL) were purchased from Sigma Co., St. Louis, MO, USA. Pepsin (3 × 10^3 U/g) was obtained from Solarbio Science & Technology, Co., Ltd. (Beijing, China). High-performance liquid chromatography grade acetonitrile and trifluoroacetic acid were purchased from Fischer Scientific Co. (Waltham, MA, USA). The enzyme-linked immunosorbent assay kit for the detection of ACE, angiotensinogen (AGT), aldosterone (ALD), and Endothelin-1(ET-1) was purchased from Jiangsu Jingmei Biotechnology Co., Ltd. (YanCheng, China). The enzyme-linked immunosorbent assay kit for the detection of Ang II was obtained from Shanghai Kexing Biotechnology Co., Ltd., (Shanghai, China). and the nitric oxide (NO) detection kit was a product of Nanjing Jiancheng Institute of Biological Engineering (Nanjing, China), and other chemical reagents used in the experiment were of analytical grade.
# Following a previous method reported by Zheng et al. (2017), we could determine the ACE inhibitory activity of glutelin-1 hydrolysate, separated fractions, active peptides, and all the other samples with 1.0 mg/mL Captopril as a positive control. The IC50 value (the concentrationof the inhibitory peptide (μM) had to inhibit 50% of the ACE activity) was calculated by linear regression of the curve.
# The following formula was used to calculate the ACE inhibition rate (%): ACE inhibition rate(%)=(1-As/Ac)×100 where Ac represents ACE solution’s absorbance without an inhibitor and As represents the mixture containing samples.
# pepsin and trypsin = test: GI digestion stability of the synthesized peptides (pepsin, trypsin), read out as ACE inhibitory activity; type: in vitro ADME; details: pepsin 1 mg/mL pH 2.0 37 °C 3 h, or trypsin 1.0 mg/mL pH 8.0 37 °C 4 h
# Method: We conducted a GI digestion stability analysis of the synthesized peptides according to the method proposed by Khueychai et al. (2018) with slight modifications. Briefly, the peptide solution was incubated with 1 mg/mL of pepsin solution (0.1 M HCl, pH 2.0) at 37 °C for 3 h. Subsequently, the pH value of the mixed solution was adjusted to 8.0 with 1.0 M NaOH, and 1.0 mg/mL of trypsin added and incubated at 37 °C for 4 h. Finally, the ACE inhibitory activity of the reaction solution could be determined after boiling for 10 min, cooling to room temperature, and centrifuging for 15 min at 10,000× g.
# [2] = Temperature, pH, metal ion, sugar and salt treatment stability of the synthesized peptides, read out as ACE inhibition rate; type: physicochemical; details: 1.0 mg/mL peptide, read-out ACE inhibition rate
# Method: The effect of temperature, pH, metal ion, sugar, and salt treatments on the stabilities of two synthesized peptides, were determined by incubating 1.0 mg/mL of VERGRRITSV and FVIEPNITPA at 20 °C, 40 °C, 60 °C, 80 °C, and 100 °C for 2 h; 37 °C for 2 h at pH 2, 4, 6, 8, and 10; with 100 μg/mL of KCl, CaCl2, ZnSO4, MgSO4, and FeSO4 solution at 37 °C for 2 h; with glucose solutions of 2%, 4%, 8%, and 12% at 37 °C for 30 min; with NaCl solutions of 2%, 4%, 8%, and 12% at 37 °C for 30 min, respectively. The ACE inhibition rate was measured immediately after incubation.
# [3] = NaCl solutions 2-12%, 37 °C for 30 min
"IC50 of ACE inhibitory activity (enzyme activity assay, ACE from rabbit lung, substrate HHL) [1]",IC50 (ACE (from rabbit lung)),"stability of ACE inhibitory activity with metal ions K+, Ca2+ and Mg2+ ([2]; 100 μg/mL KCl, CaCl2, MgSO4, 37 °C for 2 h)","stability of ACE inhibitory activity under high-concentration salt conditions [2, 3]","stability of ACE inhibitory activity under low-concentration salt conditions [2, 3]","stability of ACE inhibitory activity at low glucose concentration ([2]; glucose solutions 2-12%, 37 °C for 30 min, low concentrations)",Molecule,ACE inhibitory activity under pepsin or trypsin digestion (pepsin and trypsin)
6.36 µM,–,–,–,–,–,Phe-Val-Ile-Glu-Pro-Asn-Ile-Thr-Pro-Ala (…) (peptide),–
–,6.82 µM,showed stability,less stable,good stability,showed stability,"VERGRRITSV [VERGRRITSV, Val-Glu-Arg-Gly-Arg-Arg-Ile-Thr-Ser-Val]",could still maintain high ACE inhibitory activity
6.82 µM,–,–,–,–,–,VERGRRITSV [Val-Glu-Arg-Gly-Arg-Arg-Ile-Thr-Ser-Val (…)],–
